Assay results as given in patent US8299089B2, “Multi-arm polymeric conjugates of 7-ethyl-10-hydroxycamptothecin for treatment of breast, colorectal, pancreatic, ovarian and lung cancers” (priority 2006, dated 2012).

Tests used:
PANC-1 = assay: In vitro cytotoxicity, MTS assay, PANC-1; assay type: cell-based
Experimental: (§1) In Table 2, the cytotoxicity (μM of each compound that results in an IC50) provides an indication of the in vitro anti-tumor potency of each compound. This study was used to determine the effect of PEGylation of four-arm PEGylated 7-ethyl-10-hydroxycamptothecin conjugates. […] Cells were incubated with drugs for 72 hours at 37° C. Following incubation, MTS dye was added and formation of a colored product (formazan) was measured at 490 nm.

OV90 = assay: In vitro cytotoxicity, MTS assay, OV90; assay type: cell-based
Experimental: as §1

A549 = assay: In vitro cytotoxicity, MTS assay, A549; assay type: cell-based
Experimental: as §1

OVCAR-8 = assay: In vitro cytotoxicity, MTS assay, OVCAR-8; assay type: cell-based
Experimental: as §1

[1] = tested on: HT-29 colorectal tumor cells; assay: Efficacy in HT-29 colorectal tumor xenograft mice; settings: for effect on body weight: during the treatment
[2] = tested on: human mammary carcinoma (MX-1); assay: Multiple dose efficacy in MX-1 breast tumor xenograft mouse model; assay type: in vivo, nude mice; settings: i.v. 5 mg/kg/dose (q2d×6), day 31
Experimental: The mice were dosed 5 mg/kg/day […] (every 2 days [q×2d]×6). Mouse weight and tumor sizes were monitored up to the 31st day after the first dose administration and subsequent administrations.

MIA PaCa-2 = assay: In vitro cytotoxicity, MTS assay, MIA PaCa-2; assay type: cell-based
Experimental: as §1

[3] = tested on: MiaPaCa-2 pancreatic tumor cells; assay: Efficacy in MiaPaCa-2 pancreatic tumor xenograft mice; assay type: in vivo
Colo 205 = assay: In vitro cytotoxicity, MTS assay, Colo 205; assay type: cell-based
Experimental: as §1

OVCAR-3 = assay: In vitro cytotoxicity, MTS assay, OVCAR-3; assay type: cell-based
Experimental: as §1

[4] = tested on: human mammary carcinoma (MX-1); assay: Single dose efficacy in MX-1 breast tumor xenograft mouse model; assay type: in vivo, nude mice; settings: day 31; for Mean TV ± SD: single dose i.v. 20 mg/kg (conjugate as 7-ethyl-10-hydroxycamptothecin equivalent)
Experimental: Following at least one week of acclimation, tumors were established by implanting small tumor fragments from donor mice into a single subcutaneous site, on the left auxiliary flank region of nude mice. The tumor implantation site was observed twice weekly and measured once palpable. The tumor volume for each mouse was determined by measuring two dimensions with calipers and calculated using the formula: tumor volume=(length×width^2). […] Drugs were administered intravenously via the tail vein as a single dose of 20 mg/kg body weight of a mouse. […] Mouse weight and tumor sizes were measured at the beginning of study and on the 31st day after the single dose administration.
The overall growth of tumors was calculated as the mean tumor volume (TV). A percent treatment over control (T/C) was also calculated. The percentage of tumor regression indicates the in vivo activity of each compound.

HT29 = assay: In vitro cytotoxicity, MTS assay, HT29; assay type: cell-based
Experimental: as §1

ASPC-1 = assay: In vitro cytotoxicity, MTS assay, ASPC-1; assay type: cell-based
Experimental: as §1

A2780 = assay: In vitro cytotoxicity, MTS assay, A2780; assay type: cell-based
Experimental: as §1

SK-0V-3 = assay: In vitro cytotoxicity, MTS assay, SK-0V-3; assay type: cell-based
Experimental: as §1

[5] = Maximum tolerated dose (MTD) in nude mice; settings: mouse, in vivo
From the text: Mice were monitored for 14 days for mortality and signs of illness and sacrificed when body weight loss was >20% of the pretreatment body weight.

[6] = tested on: human mammary, MX-1 tumors; assay: Efficacy in small and large MX-1 breast tumor xenografted mice; assay type: in vivo, nude mice; settings: for effect on body weight: given at the MTD, for the duration of the treatment
Experimental: The antitumor efficacy of 4armPEG-Gly-(7-ethyl-10-hydroxycamptothecin) was evaluated in nude mice bearing small (about 100 mm^3) or large (about 450 mm^3) established human mammary, MX-1 tumors. The antitumor therapeutic activities were determined in mice both with a single dose or multiple dose regimens.
Four of six mice were cured as of day 54. […] All animals were sacrificed by day 20 due to excessive tumor burden.

BxPC-3 = assay: In vitro cytotoxicity, MTS assay, BxPC-3; assay type: cell-based
Experimental: as §1

[7] = tested on: panel of cancer cell lines; assay: In vitro cytotoxicity, panel of cancer cell lines (comparisons); assay type: cell-based
Experimental: as §1
PEG-(7-ethyl-10-hydroxycamptothecin) conjugates containing various amino acids are potent in vitro cytotoxicity against a panel of cancer cell lines as summarized in TABLE 3.

[8] = Pharmacokinetics in tumor free Balb/C mice; assay type: in vivo
From the text: Pharmacokinetic analysis was done using non-compartmental analysis (WinNonlin).

Pharmacokinetics in rats = assay type: in vivo; settings: rats, 3, 10 and 30 mg/kg; conjugate
[9] = Stability in saline, aqueous medium and buffer; assay type: physicochemical; settings: effect of pH, FIG. 13
Experimental: PEG-7-ethyl-10-hydroxycamptothecin conjugates show good stability in saline and other aqueous medium for up to 24 hours at room temperature.

[10] = multiple doses i.v. (10 mg/kg/dose for five days; CPT-11 also 40 mg/kg/dose)
[11] = single dose i.v. (30 mg/kg; CPT-11 also 80 mg/kg)
[12] = small tumors (about 100 mm^3), multiple doses 20 mg/kg q2d×5, as of day 31
[13] = small tumors (about 100 mm^3), single dose 20 mg/kg

CCc1c2c(nc3ccc(OC(=O)N4CCC(N5CCCCC5)CC4)cc13)-c1cc3c(c(=O)n1C2)COC(=O)[C@]3(O)CC [CPT-11, Irinotecan, reference compound]
IC50 (PANC-1; Homo sapiens, PANC-1, 72 h): 34 ± 16 µM
IC50 (OV90; Homo sapiens, OV-90, 72 h): 18 ± 4.8 µM
IC50 (A549; Homo sapiens, A549, 72 h): 67 ± 17 µM
IC50 (A549; Homo sapiens, Table 3, A549 (lung)): 13 µM
IC50 (OVCAR-8; Homo sapiens, OVCAR-8, 72 h): 9 ± 1.3 µM
effect on body weight [1]: did not significantly decrease the body of weight
Chg in TV ± SD [2]: 423 ± 243%
Cures [2]: 0%
F/I [2]: 594%
Mean TV ± SD [2]: 632 ± 698 mm^3
Median TV [2]: 340 mm^3
Regressions [2]: 0%
Survival [2]: 0%
T/C [2]: 43%
TGI [2]: 44%
IC50 (MIA PaCa-2; Homo sapiens, MIA PaCa-2, 72 h): 67 ± 46 µM
TGI [3, 10]: 34%
TGI [3, 11]: 0%
IC50 (Colo 205; Homo sapiens, COLO 205): 20 µM
IC50 (Colo 205; Homo sapiens, COLO 205, 72 h): 11 ± 1.4 µM
IC50 (OVCAR-3; Homo sapiens, OVCAR-3, 72 h): 20 ± 7.1 µM
IC50 (OVCAR-3; Homo sapiens, Table 3, OVCAR-3 (ovarian)): 41 µM
Mean TV ± SD [4]: 845 ± 50 mm^3
Cures ([4]; single dose i.v. 20 mg/kg): 0%
F/I ([4]; single dose i.v. 20 mg/kg): 843%
Median TV ([4]; single dose i.v. 20 mg/kg): 845 mm^3
Regressions ([4]; single dose i.v. 20 mg/kg): 0%
Survival ([4]; single dose i.v. 20 mg/kg): 0%
T/C ([4]; single dose i.v. 20 mg/kg): 108%
TGI ([4]; single dose i.v. 20 mg/kg): 26%
IC50 (HT29; Homo sapiens, HT-29, 72 h): 27 ± 8.6 µM
IC50 (HT29; Homo sapiens, HT-29, Table 3, HT29 (colorectal)): 56 µM
IC50 (ASPC-1; Homo sapiens, ASPC1, 72 h): 33 ± 1 µM
IC50 (A2780; Homo sapiens, A2780, 72 h): 8 ± 3.5 µM
IC50 (SK-0V-3; 72 h): 52 ± 8.5 µM
MTD at 14 days ([5]; multiple dose (q2d×5)): 40 mg/kg
MTD at 14 days ([5]; single dose): 80 mg/kg
effect on body weight [6]: did not significantly decrease the body weight
tumor growth inhibition ([6]; large tumors, 10 mg/kg q2d×5): effective TGI until treatment was discontinued, after which tumors regrew
mice in which tumors regrew ([6]; large tumors, 40 mg/kg q2d×5, after ~5 weeks): four of the six
TGI ([6]; large tumors, multiple doses at MTD 40 mg/kg q2d×5, as of day 13): ~95%
TGI ([6]; large tumors, single MTD 80 mg/kg, day 13): 70%
TGI [6, 12]: 44%
TGI [6, 13]: did not inhibit tumor growth
IC50 (BxPC-3; Homo sapiens, BXPC-3, 72 h): 44 ± 44 µM

^40k4arm-PEG-Gly(20)-(7-ethyl-10-hydroxycamptothecin) [Compound 9]
in vitro inhibition compared with CPT-11 ([7]; all tested tumor cells): much higher in vitro inhibition
in vitro inhibition compared with native 7-ethyl-10-hydroxycamptothecin ([7]; tested tumor cells except for HT29): significantly higher in vitro inhibition
IC50 (PANC-1; Table 2, PANC-1, 72 hours, Compound 9 in 7-ethyl-10-hydroxycamptothecin equivalents, average ± SD (n = 3)): 0.67 ± 0.14 µM
IC50 (OV90; Table 2, OV90, 72 hours, Compound 9 in 7-ethyl-10-hydroxycamptothecin equivalents, average ± SD (n = 3)): 0.6 ± 0.7 µM
IC50 (A549; Table 2, A549, 72 hours, Compound 9 in 7-ethyl-10-hydroxycamptothecin equivalents, average ± SD (n = 3)): 2.7 ± 0.4 µM
IC50 (OVCAR-8; Table 2, OVCAR-8, 72 hours, Compound 9 in 7-ethyl-10-hydroxycamptothecin equivalents, average ± SD (n = 3)): 0.5 ± 0.1 µM
effect on body weight [1]: did not significantly decrease the body of weight
therapeutic efficacy ([1]; i.v. 10 mg/kg/dose for five days, days 4-22): significant therapeutic efficacy compared to that of CPT-11
anti-tumor activity ([1]; single dose i.v. 30 mg/kg, days 4-22): significant anti-tumor activity
terminal elimination half-life ([8]; for 7-ethyl-10-hydroxycamptothecin): 18 to 26 h
terminal elimination half-life ([8]; for the conjugate): 18 to 22 h
Chg in TV ± SD [2]: −91 ± 10%
Cures [2]: 100%
F/I [2]: 14%
Mean TV ± SD [2]: 12 ± 18 mm^3
Median TV [2]: 6.6 mm^3
Regressions [2]: 100%
Survival [2]: 100%
T/C [2]: 0.8%
TGI [2]: 99%
IC50 (MIA PaCa-2; Table 2, MIA PaCa-2, 72 hours, Compound 9 in 7-ethyl-10-hydroxycamptothecin equivalents, no SD = average of two replicates): 0.09 µM
TGI [3, 10]: 95%
TGI [3, 11]: 71%
IC50 (Colo 205; Table 2, Colo 205, 72 hours, Compound 9 in 7-ethyl-10-hydroxycamptothecin equivalents, average ± SD (n = 3)): 1 ± 0.6 µM
IC50 (OVCAR-3; Table 2, OVCAR-3, 72 hours, Compound 9 in 7-ethyl-10-hydroxycamptothecin equivalents, average ± SD (n = 3)): 0.3 ± 0.2 µM
Mean TV ± SD [4]: 7 ± 9 mm^3
Chg in TV ± SD ([4]; single dose i.v. 20 mg/kg): −94 ± 10%
Cures ([4]; single dose i.v. 20 mg/kg): 100%
F/I ([4]; single dose i.v. 20 mg/kg): 7%
Median TV ([4]; single dose i.v. 20 mg/kg): 3 mm^3
Regressions ([4]; single dose i.v. 20 mg/kg): 100%
Survival ([4]; single dose i.v. 20 mg/kg): 100%
T/C ([4]; single dose i.v. 20 mg/kg): 0.3%
TGI ([4]; single dose i.v. 20 mg/kg, 20 mg/kg): 99%
TGI ([4]; single dose i.v. 20 mg/kg, listed as 4armPEG-Gly-(7-ethyl-10-hydroxycamptothecin), 20 mg/kg): ~100%
IC50 (HT29; Table 2, HT29, 72 hours, Compound 9 in 7-ethyl-10-hydroxycamptothecin equivalents, average ± SD (n = 3)): 0.5 ± 0.3 µM
IC50 (ASPC-1; Table 2, ASPC-1, 72 hours, Compound 9 in 7-ethyl-10-hydroxycamptothecin equivalents, average ± SD (n = 3)): 1.6 ± 1.1 µM
IC50 (A2780; Table 2, A2780, 72 hours, Compound 9 in 7-ethyl-10-hydroxycamptothecin equivalents, average ± SD (n = 3)): 0.2 ± 0.2 µM
IC50 (SK-0V-3; Table 2, SK-0V-3, 72 hours, Compound 9 in 7-ethyl-10-hydroxycamptothecin equivalents, average ± SD (n = 3)): 0.9 ± 0.01 µM
elimination half life (Pharmacokinetics in rats): 12 to 18 h
effect on body weight [6]: did not significantly decrease the body weight
TGI ([6]; large tumors (about 450 mm^3), single MTD 30 mg/kg): 96%
mice cured ([6]; large tumors, multiple doses 10 mg/kg q2d×5, as of day 54): five of six
TGI ([6]; large tumors, multiple doses at MTD 10 mg/kg q2d×5): 96%
mice cured ([6]; large tumors, single MTD 30 mg/kg, as of day 54): Four of six
TGI [6, 12]: 96%
TGI [6, 13]: 100%
IC50 (BxPC-3; Table 2, BxPC-3, 72 hours, Compound 9 in 7-ethyl-10-hydroxycamptothecin equivalents, average ± SD (n = 3)): 0.24 ± 0.04 µM
rate of 7-ethyl-10-hydroxycamptothecin release [9]: increases with increased pH
